Reference: patent publication US9463256B2, “Pretargeting kit, method and agents used therein” (KONINKLIJKE PHILIPS N.V., priority 2010, dated 2016)

How the values were obtained:
[1] = Reactivity of tetrazines, competition experiment against reference tetrazine; assay type: physicochemical; details: reference 3-(5-acetamido-2-pyridyl)-6-(2-pyridyl)-1,2,4,5-tetrazine; reaction with 10b
Protocol: A competition experiment was performed to determine the reactivity ratio of a specific tetrazine and 3-(5-acetamido-2-pyridyl)-6-(2-pyridyl)-1,2,4,5-tetrazine (that was chosen as the reference tetrazine), in the inverse-electron demand Diels-Alder reaction with trans-cyclooct-4-ene-1-ol (minor isomer, 10b).
To acetonitrile (0.100 mL) was added 5 μL of a solution of the specific tetrazine in DMSO (25 mM) and 5 μL of a solution of the reference tetrazine in DMSO (25 mM). This mixture was diluted with water (0.9 mL), and the absolute amounts of both tetrazines were determined by LC-MS/PDA analysis. Subsequently, a solution of trans-cyclooct-4-ene-1-ol (minor isomer, 10b) in DMSO (25 μL 2.5 mM) was added, and the mixture was stirred for 5 min. Again, the absolute amounts of both tetrazines were determined by LC-MS/PDA analysis, and conversions for both tetrazines was calculated. From these conversions, the reactivity ratio of both tetrazines was determined.

[2] = Trans-cyclooctene stability in vivo (blood samples reacted with excess ^111In-tetrazine 28); design: species or system mice; details: for in vivo stability of CC49-bound TCO (reactive TCO in blood, corrected for mAb clearance): tumor-free mice, up to 4 days post injection
Protocol: Tumor-free mice (n=3 per group) were injected intravenously with CC49-PEG10-TCO-O major (CC49-23a; 8.4 TCO per CC49; 300 μg/100 μL per mouse), CC49-PEG10-TCO-C minor (CC49-27b; 3.3 TCO per CC49, […]), and CC49-TCO-O major without spacer (CC49-20a; 8.0 TCO per CC49, 300 μg/100 μL per mouse). At selected time points (from 1 hour up to 4 days post injection) blood samples were withdrawn from the vena saphena and collected in vials containing heparin. The blood samples were weighed and an excess ^111In-tetrazine 28 was added. After 20 min incubation at 37° C., blood aliquots were 10-fold diluted with PBS and analyzed by SDS-PAGE. The cycloaddition yields were determined from the radioactivity in the bands corresponding to the mAb and the counts were quantified with AIDA Image Analyzer software. The amount of mAb present in blood at each time point (% ID/g blood) was evaluated in three separate groups of mice (n=3), which were injected with the corresponding ^125I—CC49-TCO (300 μg/100 μL per mouse, ca. 0.2 MBq). The data, corrected for mAb clearance, were normalized to 100% ID TCO at t=0.
This experiment was carried out to expand the series of in vivo TCO stability measurements described in Example 6. […] In the new experiment, following the same procedure, we tested the in vivo stability of a CC49-bound TCO minor without PEG spacer (20b, 6.9 equivalents bound).

[3] = In vitro reaction yields of CC49-bound TCO with tetrazine probe 28 at low concentration; assay type: physicochemical; details: TCO conjugated to CC49; 1 min at 37° C. in PBS; micromolar concentrations and lower
Protocol: To this aim we used a TCO major 20a (k2=19600±1400 M^−1s^−1) and a TCO minor 20b (k2=136700±2300 M^−1s^−1) conjugated to CC49 (6.1 and 6.6 TCOs per molecule for major and minor, respectively). The two mAb solutions were diluted in PBS to obtain TCO concentrations ranging from 1×10^−5M to 1×10^−8M and were reacted with carrier-added ^177Lu-tetrazine (1 eq. with respect to mAb) for 1 min at 37° C. Aliquots of the reaction mixtures (20 μl) where then quenched with an excess of tetrazine 6, added with non-reducing sample buffer and analyzed by SDS-PAGE. The cycloaddition yields were determined from the radioactivity in the bands corresponding to the mAb and the counts were quantified with the AIDA Image Analyzer software. The experiments were repeated in triplicate. As expected for a bimolecular reaction, a decrease in the concentration of the two reactive species in solution translates into lower reaction yields after 1 min incubation (FIG. 18).

[4] = Second order kinetic constants of the reactions between CC49-TCO constructs and ^177Lu-28; assay type: physicochemical; details: TCO conjugated to CC49, reaction with ^177Lu-28 in PBS, pH 7.4 at 37° C.
Protocol: Typically, 1 mg CC49 (5 mg/mL solution in PBS) was modified with 0.6 molar (for kinetic measurements) or 10 molar eq. (for in vivo studies) of TCO-NHS constructs in a total volume of 250 μL PBS. The pH was adjusted to 9 with 1 M sodium carbonate buffer. The reactions were carried out under agitation for 30 min at RT in the dark. Subsequently, the TCO-modified mAbs were extensively washed with PBS using Amicon Ultra-15 centrifugal devices. The numbers of TCO groups per antibody were determined with a tetrazine titration, outlined below.
Tetrazine-DOTA 28 was radiolabeled with carrier-added ^177Lu. mAb (25 μg) modified with ca. 0.6 molar eq. TCO was reacted with 3 molar eq. of ^177Lu-28 (0.5 nM). mAb (25 μg) modified with ca. 10 molar eq. TCO was reacted with 15 molar eq. of ^177Lu-28 (2.5 nM). The reactions were carried out in 50 μL PBS pH 7.4 at 37° C. for 10 min. The reaction mixtures were analyzed by SDS-PAGE and phosphor imager and the reaction yields were determined from the radioactivity in the bands corresponding to the mAb. The counts were quantified with AIDA Image Analyzer software (Raytest).
Tetrazine-DOTA 28 was radiolabeled with carrier-added ^177Lu at a specific activity of 3 MBq/μg. ^177Lu-28 (33 nM) was reacted with increasing concentrations of CC49 modified with 1 eq. of TCO (0.33, 1, and 1.67 μM) in 200 μL PBS, pH 7.4 at 37° C. for 5 min. At selected times (15, 30, 45, 60, 90, 120, 180, and 300 sec) a 20 μL sample was withdrawn and quenched with tetrazine 6 (FIG. 5; described in Rossin et al. Angew Chem Int Ed 2010, 49, 3375) (1.5 μL, 5 mg/mL in DMF). Aliquots of each mixture were analyzed by SDS-PAGE and phosphor imager and the cycloaddition yields were determined from the radioactivity in the bands corresponding to the mAb. The counts were quantified with AIDA Image Analyzer software (Raytest).
The newly synthesized TCO constructs were evaluated with respect to their reactivity towards tetrazine 28. The procedures are described in Example 5.

| SMILES | k2/k2 ref [1] | in vivo stability of CC49-bound TCO (reactive TCO in blood, corrected for mAb clearance) [2] | further results |
| --- | --- | --- | --- |
| CCCC(=O)Nc1ccc(-c2nnc(-c3ccc(F)cn3)nn2)nc1 [compound 38, 3-(5-Fluoro-2-pyridyl)-6-(5-butanamido-2-pyridyl)-1,2,4,5-tetrazine] | 0.95 | – | – |
| O=C(ON1C(=O)CCC1=O)c1ccc(COC2CC/C=C/CCC2)cc1 (centres unmarked) [20a, (E-major)-2,5-Dioxopyrrolidin-1-yl 4-((cyclooct-4-enyloxy)methyl)benzoate] | – | – | time stable in vivo ([2]; TCO bound to CC49, tumor-free mice): at least 4 days |
| O=C(ON1C(=O)CCC1=O)c1ccc(COC2CC/C=C/CCC2)cc1 (centres unmarked) [20b, (E-minor)-2,5-Dioxopyrrolidin-1-yl 4-((cyclooct-4-enyloxy)methyl)benzoate] | – | only slowly degrade in vivo | reaction yields with ^177Lu-tetrazine versus equatorial TCO 20a [3]: significantly higher |
| O=C(CCOCCOCCOCCOCCOCCOCCOCCOCCOCCOCCOCCOCCNC(=O)c1ccc(NC(=O)OC2CC/C=C/CCC2)cc1)ON1C(=O)CCC1=O (centres unmarked) [27b, (E-minor)-2,5-dioxopyrrolidin-1-yl 1-(4-(((cyclooct-4-en-1-yloxy)carbonyl)amino)phenyl)-1-oxo-5,8,11,14,17,20,23,26,29,32,35,38-dodecaoxa-2-azahentetracontan-41-oate] | – | unstable in vivo | Second order kinetic constant, PEG10 Spacer [4]: (27b) 111600 ± 1800 M^−1s^−1 |
| CCCC(=O)Nc1ccc(-c2nnc(-c3ccc(C(F)(F)F)cn3)nn2)nc1 [compound 35, 3-(5-Butyramido-2-pyridyl)-6-(5-(trifluoromethyl)-2-pyridyl)-1,2,4,5-tetrazine] | 1.84 | – | – |
| Cc1nnc(-c2ccccn2)nn1 [compound 40, 3-(2-Pyridyl)-6-methyl-1,2,4,5-tetrazine] | 0.25 | – | – |
| O=C(CCOCCOCCOCCOCCOCCOCCOCCOCCOCCOCCOCCOCCNC(=O)c1ccc(COC2CC/C=C/CCC2)cc1)ON1C(=O)CCC1=O (centres unmarked) [23a, (E-major)-2,5-Dioxopyrrolidin-1-yl 1-(4-((cyclooct-4-en-1-yloxy)methyl)phenyl)-1-oxo-5,8,11,14,17,20,23,26,29,32,35,38-dodecaoxa-2-azahentetracontan-41-oate] | – | unstable in vivo | Second order kinetic constant, PEG10 Spacer [4]: (23a) 16500 ± 1400 M^−1s^−1 |
| c1cc(-c2nnc(-c3ccncc3)nn2)ccn1 [compound 42, 3,6-Bis(4-pyridyl)-1,2,4,5-tetrazine] | 0.83 | – | – |
